Marks after values point to notes of the source that are not given here.
Tests used:
WT-HMBS [1] = target: T1, WT-HMBS (Homo sapiens, UniProt P08397); test: Limited proteolysis by trypsin; type: biochemical; settings: 84 μM compound; for Protection against tryptic proteolysis: 2% DMSO
T1 construct: Full-length HMBS was cloned into pET-28a(+)-TEV vector and transformed into BL21 (DE3) cells for expression; 6xHis (N, cleaved yes); TEV protease cleavage site (N, cleaved yes); made in house; host or cells: E. coli BL21 (DE3)
T1 sequence (P08397 1-361): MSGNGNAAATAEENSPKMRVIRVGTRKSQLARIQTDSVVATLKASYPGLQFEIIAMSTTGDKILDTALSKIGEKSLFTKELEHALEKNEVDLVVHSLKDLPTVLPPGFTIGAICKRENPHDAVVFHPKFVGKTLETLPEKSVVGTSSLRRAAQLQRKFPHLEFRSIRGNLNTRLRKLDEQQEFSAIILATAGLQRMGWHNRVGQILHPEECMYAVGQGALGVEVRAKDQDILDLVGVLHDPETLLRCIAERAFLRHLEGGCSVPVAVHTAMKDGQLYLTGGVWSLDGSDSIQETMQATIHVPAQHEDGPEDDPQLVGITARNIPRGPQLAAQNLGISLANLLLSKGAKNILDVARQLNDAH
Method: Limited proteolysis by trypsin was performed at 37° C. in 20 mM HEPES, 150 mM NaCl, 2% DMSO, pH 8.2, with 0.15 μg/μl HMBS in the absence (DMSO-control) or presence of 84 μM compound and 2% DMSO. The proteolysis was initiated by adding 1 μg/ml TPCK-treated trypsin (Sigma-Aldrich). After 30 min, aliquots were removed and transferred to Laemmli loading buffer containing 2 μg/ml soybean trypsin inhibitor. Samples resolved by electrophoresis with 10% Mini-Protean® TGX™ gels (Bio-Rad Laboratories, Inc.) were analyzed using the Image Lab™ software (Bio-Rad Laboratories, Inc.). The unpaired t-test (two tailed) was performed using GraphPad Prism.
(§1) Limited tryptic proteolysis was also applied to compound BG-1. Proteolysis of WT-HMBS provided three major bands with relative content 34.5±0.3%, 14.7±0.8% and 50.9±0.5%, corresponding to remaining full-length HMBS (˜42.5 kDa), and two fragments of ˜41.0 kDa and ˜31.5 kDa, respectively (FIG. 1). […] The effect of this compound at 84 μM on the steady-state enzyme kinetics of HMBS was then calculated (Table 2).

[2] = test system: Hmbs-deficient T1/T2−/− mice; test: Mouse trial T1/T2-B, phenobarbital-induced biochemical acute attack; type: in vivo; settings: 20 mg/kg/day, 12 days; for Hepatic HMBS enzyme activity in liver homogenates: compared with control group; for Urinary ALA and PBG excretion: versus control group; for Increase in steady-state levels of HMBS in liver tissue: quantitative western immunoblotting
Method: The crude liver homogenates were passed through Zeba spin desalting columns (Thermo Fisher Scientific) to remove small molecules <2000 Da. 50 mM HEPES pH 8.2 was used as equilibration buffer. 25 μl filtrated homogenate (400-500 μg total protein) was added to 110 μl sample mix (50 mM HEPES, pH 8.2, 1% Triton™ X-100) and incubated for 10 min at 37° C. before adding PBG (1 mM). The reaction was stopped after 1 h by adding ice-cooled 100% TCA to a final concentration of 25%, incubated at room temperature (RT) for 10 min and centrifuged at 10,000 g for 10 min. The absorption was measured in the supernatant at A409 with baseline correction at A380 using NanoDrop™ 2000c spectrophotometer (Thermo Fisher Scientific). The activity of HMBS was expressed as relative activity in the compound-treated […] compared to DMSO-controls. A blank sample was prepared for each homogenate. The unpaired t-test (two tailed) was performed using GraphPad Prism.
Liver homogenates (5 μg total protein/lane) were loaded onto 10% Mini-Protean® TGX™ gels (Bio-Rad) and separated with Tris/Glycine/SDS electrophoresis buffer (Bio-Rad). Trans-Blot® Turbo™ Transfer Starter System (Bio-Rad) was used to transfer the proteins onto Immun-Blot® low fluorescence PVDF membranes (Bio-Rad). The membranes were then blocked with TBS containing 1% Tween® 20 (1% TBS-T) and 3% BSA for 1 h. HMBS was probed with 1:2,000 monoclonal mouse anti-HMBS (H-11, Santa Cruz Biotechnology), together with 1:1,000 rabbit anti-actin (Sigma-Aldrich), in 1% TBS-T, 3% BSA overnight, 4° C. Alexa Fluor 647 conjugated donkey-anti-mouse and Alexa Fluor 488 conjugated donkey-anti-rabbit (both Thermo Fisher Scientific) were used as secondary antibodies and incubated in 1:1,000 dilutions in 0.1% TBS-T for 1 h. Each step was followed by extensive wash with 0.1% TBS-T. Fluorescence detection was performed using G-Box Chemi-XRQ (Syngene Synoptics, Cambridge, UK) with filters UV06 and 705 nm for AF-488 and AF-647, respectively, and the band intensities of HMBS relative to the loading control (actin) were determined using ImageJ (Schneider et al., Nature methods 2012; 9(7): 671-5).

WT-HMBS [3] = target: T1, WT-HMBS; test: Steady-state enzyme kinetics of HMBS (KM, Vmax); type: biochemical; settings: for Effect on steady-state enzyme kinetics of HMBS: 84 μM compound; for Vmax: variable PBG (0-1 mM), 37° C.
Method: The effect of the compounds on the stability of HMBS activity was assayed by pre-incubating the HMBS (4-5 μg) in 50 mM HEPES pH 8.2, 84 μM compound and 2% DMSO for 20 min at 70° C., and then placed on ice for 5 min. The enzymatic activity at 37° C. was subsequently measured as reported previously (Bustad et al., Bioscience reports 2013; 3 3(4)). Controls without compound but with equal concentration of DMSO were included. The remaining activity in the presence of compounds was normalized relative to DMSO-control (relative activity). […] USA, www.graphpad.com.
as §1

| Protection against tryptic proteolysis (WT-HMBS [1]; Table 3) | Vmax (WT-HMBS [3]; Table 3, 84 μM compound with 2% DMSO, control 61 ± 2) [nmol/min/mg] | SMILES | Protection against tryptic proteolysis (WT-HMBS [1]; remaining full-length HMBS relative to DMSO) | Protection against proteolysis (WT-HMBS [1]; limited tryptic proteolysis) | Hepatic HMBS enzyme activity in liver homogenates [2] | Urinary ALA and PBG excretion [2] | Relative concentration of ALA in liver ([2]; p<0.05 compared with control mice) | Relative concentration of PBG in liver ([2]; p=0.053 compared with control mice) | Increase in steady-state levels of HMBS in liver tissue [2] [fold] | Effect on steady-state enzyme kinetics of HMBS (WT-HMBS [3]) | Vmax (WT-HMBS [3]; 84 μM compound in 2% DMSO, DMSO control 61 ± 2) [nmol/min/mg] |
| --- | --- | --- | --- | --- | --- | --- | --- | --- | --- | --- | --- |
| – | – | O=Cc1cc(Cc2ccccc2Cl)cc([N+](=O)[O-])c1O [BG-1] | ++** (++, 10% remaining full-length HMBS relative to DMSO.) | exhibited protection against proteolysis | significantly increased enzyme activity | reduced | decreased | decreased | 2 | reduction in both KM and Vmax | 56 ± 1 |
| +* (+, >4%) | 54 ± 2 | O=C(c1ccccc1)c1ccc(Cl)c([N+](=O)[O-])c1 [BG-2] | – | – | significantly increased enzyme activity | reduced | – | – | 2 | weak mixed inhibitory effect | – |
